In patent US20240299321A1, “METHODS TO SENSITIZE CANCER CELLS AND STANDARDIZED SCREENING ASSAY FOR IMMUNOTHERAPY” (THE TRUSTEES OF INDIANA UNIVERSITY, priority 2020, published 2024):

What was measured:
[1] = tested on: EO771 (Luc+OVA+) tumor organoids; test: Intra-tumor infiltration of T cells in tumor organoids; type: cell-based, mouse; conditions: 48 h treatment, then co-culture with OT-I T cells
Protocol: To evaluate intra-tumor infiltration of T cells, EO771 (Luc+OVA+) tumor organoids were treated with indicated drugs for 48 h, and then co-cultured with OT-I T cells. After co-culture for 48 h, the organoids with T cells inside or attached were dissociated by TrypLE Express (Thermo Fisher) into single cells and stained with APC/Cy7-conjugated anti-mouse CD8 (Biolegend) and SYTOX Blue reagent for 15 min. The CD8+ T cell proportions from tumor organoids were analyzed by flow cytometry.

[2] = tested on: EO771 tumors; test: EO771 orthotopic breast tumor model in immunocompetent C57BL/6 mice; type: in vivo; conditions: 20 mg kg-1 intraperitoneal, 3 times/week for 2 weeks
Protocol: T cell effector function analysis: We measured cytokine and cytolytic granule production (IFNγ, GZMB and TNFα) of CD8+ T cells from mouse tumor samples and tumor organoid-T cell co-culture. Briefly, CD8+ T cells were placed into the 24-well plate at 1×10^6 cells/well, stimulated with 1 μM ionomycin and 50 ng ml-1 phorbol 12-myristate 13-acetate (PMA) (Sigma-Aldrich) for 4 h, in the presence of 5 μg ml-1 Brefeldin A (BFA), with the purpose to amplify the expression of intracellular cytokines61. The cells were stained with APC/Cy7-conjugated anti-CD8a (Biolegend) for 15 min and then fixed by 4% PFA. After washing, cells were stained with PerCP/Cy7-conjugated anti-GZMB, APC-conjugated anti-IFNγ and PE-conjugated anti-TNFα (Biolegend) for 15 min. In flow cytometric analyses, T cells stained with isotype control antibodies were used as negative controls for gating the cytokine or granule-producing cells. For T cells from tumor organoid-T cell co-culture, tumor organoids were first digested into single cells with TrypLE Express at 37° C. before APC/Cy7-conjugated anti-CD8a staining. In the IFNγ and TNFα secretion assay (Biolegend), T cells were stimulated with ionomycin and PMA without the presence of BFA. The media were collected for ELISA assay.
Immunohistochemistry (IHC) and Immunofluorescence (IF) analysis of tumor organoids: Tumor organoids were gently centrifuged at 100 rcf from organoid culture medium and then embedded in 2% agar. Tumor organoids were fixed in 4% paraformaldehyde solution for overnight at room temperature. The samples were replaced with 70% ethanol and later embedded in paraffin blocks. Paraffin sections were cut at 5 μm thickness, attached on slides, heated at 60° C. for 1 h and then overnight at 37° C. The slides were stained with hematoxylin and eosin (H&E). IHC staining follows the protocol described62. Mouse-specific antibodies for CD8α (Cell Signaling Technology, clone D4W2Z, 1:400 dilution), cleaved caspase3 (Cell Signaling Technology, clone D175, 1:400 dilution) and Ki67 (Cell Signaling Technology, clone D3B5, 1:400 dilution) were used for IHC staining. The DAB peroxidase substrate kit (Vector laboratories Inc.) was used to visualize the antibodies. For IF analysis, the sample slides were blocked 3% BSA for 40 min after hydration. The slides were stained with primary antibodies including EpCAM (Abcam, 1:400 dilution), FITC-conjugated anti-α-SMA (Genetex, 1:400 dilution) and AF594-conjugated anti-CD31 (Biolegend) for 1 h. For EpCAM staining, the slide was further stained with secondary antibody Alexa Fluor 647-conjugated anti-rabbit IgG (Biolegend, 1:200) for 40 min. The fluorescence images were captured under a Leica DM4B microscope.
Animal studies: All animal experiments were performed in accordance with the National Institutes of Health's Animal Use Guidelines and protocols approved by the Animal Care and Use Committee of Indiana University School of Medicine. To examine the tumorigenic potential of tumor organoids, tumor organoids with different sizes (diameter of 30-70, 70-150, and 150-500 μm) were orthotopically injected into fat pad of the 4th mammary gland in female C57BL/6 mice. Each mouse was injected with a total of 2×10^5 tumor cells. 5 mice were used in each group. Tumors were measured in two dimensions using a manual caliper. Tumor volume was calculated using the following formula: V=0.5×length×width×width. Tumor volume was measured every 3 days. Tumors were harvested 22 days after injection. The tumor growth, volume and weight were analyzed. To evaluate the anti-tumor effect of drugs in immunocompetent C57BL/6 mice and immunodeficient nude (NU/J) mice, 2×10^5 EO771 cells were orthotopically injected into fat pad of the 4th mammary gland in female mice. […]

## COc1ccccc1S(=O)(=O)Nc1ccc2c(c1)CN(C)C(=O)N2 [PFI-1]
[1]
  CD8+ T cell infiltration in the tumor organoids: poor T cell infiltration
[2]
  anti-tumor effect in animal experiments: no anti-tumor effect
